Laboratory results as given in the NIST ThermoML archive (doi:10.1021/acs.jced.5b00385).

Details: Liquid, Vibrating tube method

CCOC(=O)CCC(=O)OCC [diethyl butanedioate]
Details | mass density [kg/m3]
283.56 K, 100010 kPa | 1102.48
283.57 K, 100 kPa | 1049.61
283.57 K, 1000 kPa | 1050.21
283.57 K, 3000 kPa | 1051.56
283.57 K, 5000 kPa | 1052.88
283.57 K, 10000 kPa | 1056.11
283.57 K, 15000 kPa | 1059.25
283.57 K, 30000 kPa | 1068.16
283.57 K, 40000 kPa | 1073.71
283.57 K, 50000 kPa | 1079
283.57 K, 60000 kPa | 1084.1
283.57 K, 70000 kPa | 1089.01
283.57 K, 80000 kPa | 1093.63
283.57 K, 90010 kPa | 1098.12
283.58 K, 20000 kPa | 1062.29
283.58 K, 25000 kPa | 1065.25
293.49 K, 100 kPa | 1039.78
293.49 K, 20000 kPa | 1053.11
293.49 K, 25000 kPa | 1056.23
293.49 K, 40000 kPa | 1065.07
293.49 K, 60000 kPa | 1075.9
293.5 K, 1000 kPa | 1040.41
293.5 K, 3000 kPa | 1041.81
293.5 K, 5000 kPa | 1043.2
293.5 K, 10000 kPa | 1046.6
293.5 K, 15000 kPa | 1049.91
293.5 K, 30000 kPa | 1059.25
293.5 K, 50000 kPa | 1070.61
293.5 K, 70000 kPa | 1080.89
293.5 K, 80000 kPa | 1085.77
293.51 K, 90000 kPa | 1090.39
293.51 K, 100000 kPa | 1094.9
303.42 K, 100 kPa | 1028.98
303.42 K, 1000 kPa | 1029.62
303.42 K, 20000 kPa | 1042.98
303.42 K, 25000 kPa | 1046.26
303.42 K, 60000 kPa | 1066.78
303.42 K, 70000 kPa | 1072.05
303.42 K, 80000 kPa | 1077.09
303.43 K, 3000 kPa | 1031.12
303.43 K, 5000 kPa | 1032.59
303.43 K, 15000 kPa | 1039.61
303.43 K, 30000 kPa | 1049.4
303.43 K, 40000 kPa | 1055.5
303.43 K, 50000 kPa | 1061.26
303.43 K, 90000 kPa | 1081.92
303.43 K, 100000 kPa | 1086.58
303.44 K, 10000 kPa | 1036.15
313.31 K, 15000 kPa | 1030.05
313.31 K, 50000 kPa | 1052.81
313.32 K, 5000 kPa | 1022.61
313.32 K, 10000 kPa | 1026.44
313.32 K, 30000 kPa | 1040.39
313.32 K, 40000 kPa | 1046.78
313.33 K, 100 kPa | 1018.75
313.33 K, 1000 kPa | 1019.44
313.33 K, 3000 kPa | 1021.07
313.33 K, 20000 kPa | 1033.63
313.33 K, 25000 kPa | 1037.06
313.33 K, 60000 kPa | 1058.52
313.33 K, 70000 kPa | 1064.01
313.33 K, 80000 kPa | 1069.21
313.33 K, 90000 kPa | 1074.2
313.33 K, 100000 kPa | 1078.99
323.18 K, 100 kPa | 1008.44
323.18 K, 1000 kPa | 1009.19
323.18 K, 3000 kPa | 1010.86
323.18 K, 10000 kPa | 1016.52
323.18 K, 15000 kPa | 1020.37
323.18 K, 20000 kPa | 1024.08
323.18 K, 25000 kPa | 1027.7
323.19 K, 5000 kPa | 1012.5
323.19 K, 30000 kPa | 1031.17
323.19 K, 40000 kPa | 1037.8
323.19 K, 50000 kPa | 1044.06
323.19 K, 60000 kPa | 1050.01
323.19 K, 70000 kPa | 1055.67
323.19 K, 80000 kPa | 1061.06
323.19 K, 90000 kPa | 1066.22
323.19 K, 100000 kPa | 1071.19
333.1 K, 100 kPa | 998.31
333.1 K, 1000 kPa | 999.11
333.1 K, 3000 kPa | 1000.91
333.1 K, 5000 kPa | 1002.64
333.11 K, 10000 kPa | 1006.85
333.11 K, 15000 kPa | 1010.94
333.11 K, 20000 kPa | 1014.85
333.11 K, 25000 kPa | 1018.62
333.11 K, 30000 kPa | 1022.27
333.11 K, 40000 kPa | 1029.2
333.11 K, 50000 kPa | 1035.72
333.11 K, 60000 kPa | 1041.91
333.11 K, 70000 kPa | 1047.69
333.11 K, 80000 kPa | 1053.26
333.11 K, 90000 kPa | 1058.57
333.11 K, 100000 kPa | 1063.7
342.97 K, 100 kPa | 987.87
342.97 K, 15000 kPa | 1001.22
342.97 K, 20000 kPa | 1005.3
342.97 K, 30000 kPa | 1013.07
342.97 K, 40000 kPa | 1020.32
342.97 K, 50000 kPa | 1027.1
342.97 K, 70000 kPa | 1039.64
342.97 K, 90000 kPa | 1050.91
342.97 K, 100000 kPa | 1056.19
342.98 K, 1000 kPa | 988.73
342.98 K, 3000 kPa | 990.63
342.98 K, 5000 kPa | 992.45
342.98 K, 10000 kPa | 996.91
342.98 K, 25000 kPa | 1009.24
342.98 K, 60000 kPa | 1033.53
342.98 K, 80000 kPa | 1045.43
352.82 K, 100 kPa | 977.64
352.82 K, 1000 kPa | 978.58
352.82 K, 3000 kPa | 980.59
352.82 K, 5000 kPa | 982.53
352.82 K, 10000 kPa | 987.26
352.82 K, 15000 kPa | 991.79
352.83 K, 20000 kPa | 996.08
352.83 K, 25000 kPa | 1000.24
352.83 K, 30000 kPa | 1004.25
352.83 K, 40000 kPa | 1011.8
352.83 K, 50000 kPa | 1018.87
352.83 K, 60000 kPa | 1025.54
352.83 K, 70000 kPa | 1031.82
352.83 K, 80000 kPa | 1037.81
352.83 K, 90000 kPa | 1043.47
352.83 K, 100010 kPa | 1048.95
362.66 K, 100 kPa | 967.3
362.66 K, 1000 kPa | 968.28
362.66 K, 3000 kPa | 970.41
362.66 K, 60000 kPa | 1017.41
362.67 K, 5000 kPa | 972.48
362.67 K, 10000 kPa | 977.45
362.67 K, 15000 kPa | 982.21
362.67 K, 20000 kPa | 986.74
362.67 K, 25000 kPa | 991.07
362.67 K, 30000 kPa | 995.26
362.67 K, 40000 kPa | 1003.16
362.67 K, 50000 kPa | 1010.5
362.67 K, 70000 kPa | 1023.98
362.67 K, 80000 kPa | 1030.14
362.67 K, 90000 kPa | 1036.01
362.67 K, 100000 kPa | 1041.65
